# US6355620B1, “C-2 modified erythromycin derivatives” (Abbott Laboratories, priority 1999, dated 2002)
# Columns and labels:
# Test in all cases: In vitro antibacterial activity, agar dilution MIC
# Format in all cases: cell-based
# [1] = system: Staphylococcus aureus ATCC 6538P; details: code AA, BHI agar, 35-37° C., 20 to 24 hours, unit assumed
# Procedure: (§1) Representative compounds of the present invention were assayed in vitro for antibacterial activity as follows: Twelve petri dishes containing successive aqueous dilutions of the test compound mixed with 10 mL of sterilized Brain Heart Infusion (BHI) agar (Difco 0418-01-5) were prepared. Each plate was inoculated with 1:100 (or 1:10 for slow-growing strains, such as Micrococcus and Streptococcus) dilutions of up to 32 different microorganisms, using a Steers replicator block. The inoculated plates were incubated at 35-37° C. for 20 to 24 hours. In addition, a control plate, using BHI agar containing no test compound, was prepared and incubated at the beginning and end of each test.
# (§2) An additional plate containing a compound having known susceptibility patterns for the organisms being tested and belonging to the same antibiotic class as the test compound was also prepared and incubated as a further control, as well as to provide test-to-test comparability.
# (§3) After incubation, each plate was visually inspected. The minimum inhibitory concentration (MIC) was defined as the lowest concentration of drug yielding no growth, a slight haze, or sparsely isolated colonies on the inoculum spot as compared to the growth control.
# [2] = system: Streptococcus pyogenes 930; details: code MM, BHI agar, 35-37° C., 20 to 24 hours, unit assumed
# Procedure: as §1, §2, §3
# [3] = system: Staphylococcus aureus CMX 553; details: code FF, BHI agar, 35-37° C., 20 to 24 hours, unit assumed
# Procedure: as §1, §2, §3
# Escherichiacoli SS = details: code RR, BHI agar, 35-37° C., 20 to 24 hours, unit assumed
# Procedure: as §1, §2, §3
# [4] = system: Micrococcusluteus ATCC 9341; details: code OO, BHI agar, 35-37° C., 20 to 24 hours, unit assumed
# Procedure: as §1, §2, §3
# Escherichiacoli JUHL = details: code QQ, BHI agar, 35-37° C., 20 to 24 hours, unit assumed
# Procedure: as §1, §2, §3
# [5] = system: Nocardia Asteroides ATCC 99700; details: code VV, BHI agar, 35-37° C., 20 to 24 hours, unit assumed
# Procedure: as §1, §2, §3
# [6] = system: Staphylococcus aureus 1775; details: code GG, BHI agar, 35-37° C., 20 to 24 hours, unit assumed
# Procedure: as §1, §2, §3
# [7] = system: Staphylococcus epidermidis 3519; details: code HH, BHI agar, 35-37° C., 20 to 24 hours, unit assumed
# Procedure: as §1, §2, §3
# [8] = system: Streptococcus agalactiae CMX 508; details: code KK, BHI agar, 35-37° C., 20 to 24 hours, unit assumed
# Procedure: as §1, §2, §3
# [9] = system: Staphylococcus aureus NCTC 10649M; details: code EE, BHI agar, 35-37° C., 20 to 24 hours, unit assumed
# Procedure: as §1, §2, §3
# [10] = system: Micrococcusluteus ATCC 4698; details: code PP, BHI agar, 35-37° C., 20 to 24 hours, unit assumed
# Procedure: as §1, §2, §3
# [11] = system: Streptococcus Pneumonia ATCC 6303; details: code XX, BHI agar, 35-37° C., 20 to 24 hours, unit assumed
# Procedure: as §1, §2, §3
# [12] = system: Mycobacterium smegmatis ATCC 114; details: code UU, BHI agar, 35-37° C., 20 to 24 hours, unit assumed
# Procedure: as §1, §2, §3
# [13] = system: Staphylococcus aureus A-5177; details: code BB, BHI agar, 35-37° C., 20 to 24 hours, unit assumed
# Procedure: as §1, §2, §3
# [14] = system: Streptococcus Pneumonia 5649; details: code ZZA, BHI agar, 35-37° C., 20 to 24 hours, unit assumed
# Procedure: as §1, §2, §3
# [15] = system: Streptococcus bovis A-5169; details: code JJ, BHI agar, 35-37° C., 20 to 24 hours, unit assumed
# Procedure: as §1, §2, §3
# [16] = system: Staphylococcus aureus A-5278; details: code CC, BHI agar, 35-37° C., 20 to 24 hours, unit assumed
# Procedure: as §1, §2, §3
# [17] = system: Streptococcus Pneumonia GYR 1171; details: code YY, BHI agar, 35-37° C., 20 to 24 hours, unit assumed
# Procedure: as §1, §2, §3
# Candida albicans CCH 442 = details: code TT, BHI agar, 35-37° C., 20 to 24 hours, unit assumed
# Procedure: as §1, §2, §3
# [18] = system: Streptococcus pyogenes PIU 2548; details: code NN, BHI agar, 35-37° C., 20 to 24 hours, unit assumed
# Procedure: as §1, §2, §3
# [19] = system: Enterococcusfaecium ATCC X043; details: code II, BHI agar, 35-37° C., 20 to 24 hours, unit assumed
# Procedure: as §1, §2, §3
# [20] = system: Staphylococcus aureus CMX 642A; details: code DD, BHI agar, 35-37° C., 20 to 24 hours, unit assumed
# Procedure: as §1, §2, §3
# Escherichiacoli DC-2 = details: code SS, BHI agar, 35-37° C., 20 to 24 hours, unit assumed
# Procedure: as §1, §2, §3
# [21] = system: Haemophilislnfluenzae DILL AMP R; details: code WW, BHI agar, 35-37° C., 20 to 24 hours, unit assumed
# Procedure: as §1, §2, §3
# [22] = system: Streptococcus pyogenes EES61; details: code LL, BHI agar, 35-37° C., 20 to 24 hours, unit assumed
# Procedure: as §1, §2, §3
# [23] = system: Streptococcus Pneumonia 5979; details: code ZZ, BHI agar, 35-37° C., 20 to 24 hours, unit assumed
# Procedure: as §1, §2, §3
Compound,Antibacterial Activity (MIC) [1] [µg/mL],Antibacterial Activity (MIC) [2] [µg/mL],Antibacterial Activity (MIC) [3] [µg/mL],Antibacterial Activity (MIC) (Escherichiacoli SS) [µg/mL],Antibacterial Activity (MIC) [4] [µg/mL],Antibacterial Activity (MIC) (Escherichiacoli JUHL) [µg/mL],Antibacterial Activity (MIC) [5] [µg/mL],Antibacterial Activity (MIC) [6] [µg/mL],Antibacterial Activity (MIC) [7] [µg/mL],Antibacterial Activity (MIC) [8] [µg/mL],Antibacterial Activity (MIC) [9] [µg/mL],Antibacterial Activity (MIC) [10] [µg/mL],Antibacterial Activity (MIC) [11] [µg/mL],Antibacterial Activity (MIC) [12] [µg/mL],Antibacterial Activity (MIC) [13] [µg/mL],Antibacterial Activity (MIC) [14] [µg/mL],Antibacterial Activity (MIC) [15] [µg/mL],Antibacterial Activity (MIC) [16] [µg/mL],Antibacterial Activity (MIC) [17] [µg/mL],Antibacterial Activity (MIC) (Candida albicans CCH 442) [µg/mL],other results
"CC[C@H]1OC(=O)[C@H](C)[C@@H](O[C@H]2C[C@@](C)(OC)[C@@H](O)[C@H](C)O2)[C@H](C)[C@@H](O[C@@H]2O[C@H](C)C[C@H](N(C)C)[C@H]2O)[C@](C)(O)C[C@@H](C)C(=O)[C@H](C)[C@@H](O)[C@]1(C)O [Ery. A standard, Erythromycin A, reference compound]",0.2,> 100,0.39,0.78,0.05,> 100,0.1,> 100,0.39,0.05,0.39,0.2,0.06,3.1,3.1,16,0.02,> 100,0.06,> 100,Antibacterial Activity (MIC) [18]: 6.2 µg/mL; Antibacterial Activity (MIC) [19]: 0.05 µg/mL; Antibacterial Activity (MIC) [20]: 0.39 µg/mL; Antibacterial Activity (MIC) (Escherichiacoli DC-2): > 100 µg/mL; Antibacterial Activity (MIC) [21]: 4 µg/mL; Antibacterial Activity (MIC) [22]: 0.05 µg/mL
"CCC1OC(=O)C(C)(CC=Cc2ccccc2)C(=O)C(C)C(OC2OC(C)CC(N(C)C)C2O)C(C)(OC)CC(C)C(=O)C(C)C2NC(=O)OC12C (centres unmarked) [Example 1, Compound of formula (II): R^a is CH3, R^b is H, Y and Z together are O, T is —NH—, R is —CH2CH═CH-(phenyl)]",25,50,50,50,3.1,> 100,25,100,50,12.5,50,6.2,8,25,25,16,12.5,100,4,100,Antibacterial Activity (MIC) [23]: 64 µg/mL; Antibacterial Activity (MIC) [18]: 12.5 µg/mL; Antibacterial Activity (MIC) [19]: 25 µg/mL; Antibacterial Activity (MIC) [20]: 25 µg/mL; Antibacterial Activity (MIC) (Escherichiacoli DC-2): > 100 µg/mL; Antibacterial Activity (MIC) [21]: > 128 µg/mL; Antibacterial Activity (MIC) [22]: 12.5 µg/mL
"CCC1OC(=O)C(C)(O)C(=O)C(C)C(OC2OC(C)CC(N(C)C)C2O)C(C)(OC)CC(C)C(=O)C(C)C2N(CCCCc3ccccc3)C(=O)OC12C (centres unmarked) [Example 2, Compound of formula (II): R^a is CH3, R^b is H, Y and Z together are O, T is —N(W(R^g))—, W is —(CH2)p—, p is 4, R^g is phenyl, R is —OH]",1.56,25,1.56,6.2,0.39,> 100,3.1,100,3.1,0.2,1.56,0.78,0.5,3.1,1.56,1,0.2,100,0.25,100,Antibacterial Activity (MIC) [23]: 32 µg/mL; Antibacterial Activity (MIC) [18]: 0.39 µg/mL; Antibacterial Activity (MIC) [19]: 0.39 µg/mL; Antibacterial Activity (MIC) [20]: 3.1 µg/mL; Antibacterial Activity (MIC) (Escherichiacoli DC-2): > 100 µg/mL; Antibacterial Activity (MIC) [21]: 64 µg/mL; Antibacterial Activity (MIC) [22]: 0.1 µg/mL
